This note sets out measurements from publication PMC7613620, “Reaction hijacking of tyrosine tRNA synthetase as a whole-of-life-cycle antimalarial strategy” (Science (New York, N.Y.), 2022).

Experiment [1] relates to aptamer-regulatable control line. As to the kind of experiment: Growth inhibition of aptamer-regulatable control line (luciferase, 72 h). It counts as cell-based, Plasmodium falciparum. The method, then:
677 parasites using CRISPR-Cas9 and homology-driven repair (55, 56). A line harbourbing an aptamer-
678 regulatable fluorescent protein (eYFP) integrated in the cg6 locus is used as the control (55). […]
696 Stock solutions of ML901, DHA or borrelidin (Cayman Chemicals) were dispensed into 96-well U-bottom
697 BD Falcon™ plates and serially diluted in complete medium to yield final concentrations ranging from 20-
698 0.08 nM. Synchronous ring-stage YRScyt conditional knockdown line and the aptamer-regulatable control
699 line in varying aTc concentrations (high = 50 or 500 nM, low = 1 nM, and no aTc) were distributed into
(§1) 700 the drug plate. Lowest drug treatment and a lethal dose of chloroquine (200 nM) served as reference
(§2) 701 controls. Growth inhibition was analysed after 72 h using the Renilla-Glo(R) Luciferase Assay System (ref
(§3) 702 no E2750 Promega) and the GloMax® Discover Multimode Microplate Reader (Promega), and IC50 values
703 were obtained from corrected dose-response curves using GraphPad Prism (version 8; GraphPad Software). […]
(§4) 706 CRISPR/Cas9 was used to generate parasites encoding the S234C mutation in exon 2 of PfYRS, as shown
(§5) 707 in Suppl Figure 6. Two guide RNAs (gRNA1: […] and gRNA2:
(§6) 708 […]) were selected using Benchling (benchling.com), and cloned into the
709 pDC2-coCas9-gRNA plasmid essentially as described previously (58). A donor template of 645 bp, […]

Experiment [2] relates to H460. As to the kind of experiment: H460 cell viability (ATP content). It counts as cell-based. Particulars: Homo sapiens, NCI-H460, 72 h, read-out: H460 IC50(72h). As for the experimental part: (§7) 574 H1650 is a human lung cancer derived ATG7-null cell line (49) that can be used to assess effects on targets
(§8) 576 adenocarcinoma; bronchoalveolar carcinoma). Other cells lines used are: H460 (NCI-H460; human lung;
(§9) 577 carcinoma; large cell lung cancer; ATCC: HTB-177); and HCT116 (human colon; colorectal carcinoma;
(§10) 578 ATCC: CCL-247; Lot : 5056139). Each of the cell lines was received from the American Type Culture
(§11) 579 Collection (ATCC) and passaged twice before freezing. Cells were cultured in the presence or absence of
(§12) 580 inhibitors and cell viability was assessed by comparing the ATP content in compound-treated wells with
(§13) 581 that in DMSO-treated wells as previously described (11). […]
(§14) 585 37°C humidified incubator as adherent semi-confluent monolayers in complete Dulbecco’s Modified Eagle
(§15) 586 Media (c-DMEM). DMEM (Gibco™, Thermo Fisher Scientific, Australia) was supplemented with 10%

In experiment [3] the test system is P. falciparum male gametes. As to the kind of experiment: Dual gamete formation assay (male). It counts as cell-based. Conditions: Plasmodium falciparum. The method, then:
(§16) 604 Activity against transmissible stages of P. falciparum
(§17) 605 Activity against male gametes was assessed using the dual gamete formation assay (PfDGFA)(32).
(§18) 606 Compounds were incubated with mature stage V gametocytes ([…], kind gift from Professor Chris Janse
(§19) 607 at Leiden University Medical Center (LUMC), the Netherlands) for 48 hours in 384 well plates before
(§20) 608 gamete formation was triggered by a drop in temperature and addition of xanthurenic acid. Male gamete
(§21) 609 exflagellation was recorded and quantified by automated microscopy. The ability of female gametes to
(§22) 611 Multiple data sets using different gametocyte cultures were collected on each of two separate days.
(§23) 613 Activity against exoerythrocytic stages
(§24) 614 Primary human hepatocytes (H1500.H15B+ Lot No. HC10-10 Cryopreserved human hepatocytes)
(§25) 615 were cultured for 2 days and then overlaid with P. falciparum NF54 sporozoites and compounds.
(§26) 616 Supernatant was refreshed daily with fresh compounds.

The test system of experiment [4] is P. falciparum NF54 liver stage parasites. As to the kind of experiment: P. falciparum NF54 schizont development in primary human hepatocytes. Particulars: Plasmodium falciparum, NF54, Hepatocyte, 96 h. The class given is cell-based.
Experiment [5] has as its system H1650. As to the kind of experiment: H1650 cell viability (ATP content). The class given is cell-based. Particulars: Homo sapiens, NCI-H1650, read-out: H1650 IC50(72h); 72 h; ATG7-null cell line. As for the experimental part: as §7, §8, §9, §10, §11, §12, §13, §14, §15
Experiment [6] deals with HCT116. As to the kind of experiment: HCT116 cell viability (ATP content). The class given is cell-based. Conditions: Homo sapiens, HCT-116, 72 h, read-out: HCT116 IC50(72h). As for the experimental part: as §7, §8, §9, §10, §11, §12, §13, §14, §15
In experiment [7] the test system is P. falciparum Dd2 PfYRSS234C mutant lines. As to the kind of experiment: 72-h sensitivity of CRISPR-edited PfYRSS234C clones. It counts as cell-based, Plasmodium falciparum. Conditions: for IC50: Plasmodium falciparum, DD2, 72 h, 72-h exposure. The method, then: as §1, §2, §3
703 were obtained from corrected dose-response curves using GraphPad Prism (version 8; GraphPad Software).
705 Generation of PfYRSS234C transfectants
as §4, §5, §6
709 pDC2-coCas9-gRNA plasmid essentially as described previously (58). A donor template of 645 bp,
710 encompassing the majority of the 708 bp exon 2, was synthesized (ThermoFisher) and cloned into the
711 AatII/EcoRI sites of both the pDC2-coCas9-gRNA1 and pDC2-coCas9-gRNA2 plasmids. In addition to
712 the TCC>TGC (S234C) mutation, additional silent shield mutations were introduced to prevent gRNA-
713 Cas9 complex binding, as shown in Suppl Figure 6. Ring-stage P. falciparum parasites (Dd2 strain) at 10%
714 parasitemia (150 µL of packed cells) were transfected with 50 µg of plasmid DNA using a BioRad Gene
715 Pulser II (310 V, 950 µF), and selected with 5 nM WR99210 (Jacobus Pharmaceuticals) for 8 days, after
716 which culture was continued without drug pressure until transfectants were obtained. Clones of the
717 PfYRSS234C mutant parasites were isolated by limiting dilution and verified by Sanger sequencing. […]
729 Cam 3.II_Rev (25) trophozoite-infected RBCs (25-30 h p.i.) were incubated with inhibitor for 3 h at 10%
730 hematocrit and 5% parasitemia. The RBC pellet was washed 3 x in PBS + cOmplete. Cells were centrifuged
731 at 380 x g for 5 min and the pelleted cells lysed by resuspension in PBS + 0.05% saponin for 5 min on ice.

In experiment [8] the test system is P. falciparum female gametes. As to the kind of experiment: Dual gamete formation assay (female). Conditions: Plasmodium falciparum. It counts as cell-based. The method, then: as §16, §17, §18, §19, §20, §21, §22, §23, §24, §25, §26
Where [9] appears, read: 48 h incubation with stage V gametocytes.

The structures appear in SMILES notation.

Consider `Nc1ncnc2c1c(OC(F)F)nn2[C@@H]1O[C@H](COS(N)(=O)=O)[C@@H](O)[C@H]1O` [ML901], for which the “Fold change in IC50 (high aTc/ no aTc), control line” value in experiment [1] is “no change”. Further, the IC50 in experiment [1] (Plasmodium falciparum, read-out: IC50 against control line) came to 2.4 ± 0.2 nM; in experiment [2] it was 4650 nM; in experiment [3] (setting [9]), 130 ± 10 nM; in experiment [4], 13 ± 5 nM; in experiment [5], 10700 nM; in experiment [6], 2280 nM. Besides, the 50% inhibitory concentration (IC50) is 22 ± 1 nM in experiment [7] (Mutant E12 (PfYRSS234C)), 22 ± 3 nM in experiment [7] (Mutant F5 (PfYRSS234C)), 20 ± 1 nM in experiment [7] (Mutant G12 (PfYRSS234C)) and 4700 ± 300 nM in experiment [8] (setting [9]). Further, the results for the inhibition at 25 µM in experiment [3] (at 25 µM) and in experiment [8] (at 25 µM) were 99% and 81%, respectively. The “decreased sensitivity of PfYRSS234C transfectants” value in experiment [7] (Dd2 parent transfectants harboring PfYRSS234C) amounted to 10 fold.

Broadly, the IC50 is the concentration that gives 50% inhibition. By inhibition is commonly meant how much of the control response was suppressed.
